Test results reported in patent publication US8221991B2, “Orphan nuclear receptor” (priority 1998, dated 2012).
Entries after “also recorded” stand apart in the source; their conditions may differ.

Tests used:
hPXR [1] = target: T1, hPXR (Homo sapiens, UniProt O75469); assay: Cotransfection assay, pSG5-hPXR ATG with (IR6)3-tk-CAT reporter in CV-1 cells; conditions: for activation of hPXR (CAT activity): 1 μM lovastatin, 100 μM phenobarbital, 10 μM of the other compounds
T1 sequence (O75469 1-434): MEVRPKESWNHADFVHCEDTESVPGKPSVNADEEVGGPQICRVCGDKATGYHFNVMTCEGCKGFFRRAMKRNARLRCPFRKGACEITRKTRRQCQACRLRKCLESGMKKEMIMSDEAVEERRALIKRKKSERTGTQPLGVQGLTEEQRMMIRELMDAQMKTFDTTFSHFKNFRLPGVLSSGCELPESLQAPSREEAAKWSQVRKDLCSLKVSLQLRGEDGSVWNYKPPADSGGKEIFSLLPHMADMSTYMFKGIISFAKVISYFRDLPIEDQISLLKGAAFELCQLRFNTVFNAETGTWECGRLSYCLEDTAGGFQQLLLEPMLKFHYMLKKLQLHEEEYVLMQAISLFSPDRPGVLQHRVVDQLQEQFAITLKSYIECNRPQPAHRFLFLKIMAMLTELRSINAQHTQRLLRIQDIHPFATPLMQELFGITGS
Method: (§1) Cells were treated with 1 μM mevastatin or lovastatin, 100 μM phenobarbital, or 10 μM of the other compounds. Cell extracts were subsequently assayed for CAT activity. […] (FIG. 4C) CARLA was performed with bacterially-expressed GST-hPXR or GST-mPXR1 and [^35S]SRC1.14 synthesized in vitro. […] [^35S]SRC1.14 complexed with GST-hPXR (top panel) or GST-mPXR1 (bottom panel) was precipitated with glutathione-sepharose beads.
(§2) CV-1 cells were plated in 24-well plates in DME medium supplemented with 10% charcoal-stripped fetal calf serum at a density of 1.2×10^5 cells per well. […] Cells were transfected overnight by lipofection using Lipofectamine (Life Technologies, Inc.), according to the manufacturer's instructions. The medium was changed to DME medium supplemented with 10% delipidated calf serum (Sigma) and cells were incubated for an additional 24 hours.
To determine, whether hPXR could regulate transcription through the IR6 motif, a reporter plasmid was generated containing three copies of the CYP3A4 IR6 response element upstream of the tk promoter and CAT gene.
It was next determined whether hPXR might mediate the effects of some or all of these compounds on CYP3A4 expression. CV-1 cells were cotransfected with the pSG5-hPXR ATG expression plasmid and the (IR6)3-tk-CAT reporter plasmid, and the cells were treated with micromolar concentrations of a number of compounds that are known to induce CYP3A gene expression in humans and/or rodents.

Biotin-His6-PXR/RXRα = target: T2, Biotin-His6-PXR/RXRα (Homo sapiens, UniProt O75469); assay: biochemical
T2 sequence (O75469 with tags, fused parts or gaps): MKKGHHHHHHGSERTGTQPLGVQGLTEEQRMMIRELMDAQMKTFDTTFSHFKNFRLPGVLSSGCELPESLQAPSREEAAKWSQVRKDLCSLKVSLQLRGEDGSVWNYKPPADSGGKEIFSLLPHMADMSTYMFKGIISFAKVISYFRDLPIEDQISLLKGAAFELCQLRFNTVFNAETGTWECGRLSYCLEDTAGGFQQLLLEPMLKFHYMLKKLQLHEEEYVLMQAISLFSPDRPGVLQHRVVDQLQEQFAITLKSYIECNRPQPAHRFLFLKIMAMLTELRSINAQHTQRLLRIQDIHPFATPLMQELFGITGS
T2 sequence (P19793 with tags, fused parts or gaps partner limits assumed): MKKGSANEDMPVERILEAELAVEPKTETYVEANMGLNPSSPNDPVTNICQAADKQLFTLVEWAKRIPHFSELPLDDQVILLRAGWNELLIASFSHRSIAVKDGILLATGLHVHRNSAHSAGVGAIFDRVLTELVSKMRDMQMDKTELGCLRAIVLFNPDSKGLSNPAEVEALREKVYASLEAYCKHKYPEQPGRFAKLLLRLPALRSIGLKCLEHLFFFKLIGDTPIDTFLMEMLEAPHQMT
Method: Test compounds were dissolved in DMSO at 10 mM and diluted 1:10 in DMSO before serially diluting in assay buffer. […] Streptavidin-PVT SPA beads (AmershamPharmacia cat 4 RPNQ0007) were resuspended in assay buffer (50 mM Tris HCl pH 8.0, 50 mM KCl, 1 mM DTT, 0.1 mg/ml essentially fatty acid free bovine serum albumin) at 0.5 mg/ml. Biotin-His6-PXR/RXRα was added to the beads to a final concentration of 50 nM. The receptors were allowed to couple to the SPA beads for thirty minutes at room temperature. The uncoupled receptor was removed by centrifuging the SPA beads at 3000 rpm for 5 minutes in a swinging bucket rotor of a Rupp & Bowman Silencer centrifuge. The receptor coated SPA beads were then resuspended in assay buffer to 3.3 mg/ml. […] The total volume in each well was 100 μL. […] The plates were then allowed to incubate at room temperature until equilibrium was obtained, approximately 1.5 hours. The plates were then counted on a TopCount liquid scintillation counter (Packard) using a protocol optimized for ^3H PVT SPA and programmed to correct for color quenching.

mPXR1 = mPXR1 (Mus musculus, UniProt O54915); conditions: CV-1 cells, (IR6)3-tk-CAT reporter; 10 μM
mPXR1, sequence (O54915 whole entry): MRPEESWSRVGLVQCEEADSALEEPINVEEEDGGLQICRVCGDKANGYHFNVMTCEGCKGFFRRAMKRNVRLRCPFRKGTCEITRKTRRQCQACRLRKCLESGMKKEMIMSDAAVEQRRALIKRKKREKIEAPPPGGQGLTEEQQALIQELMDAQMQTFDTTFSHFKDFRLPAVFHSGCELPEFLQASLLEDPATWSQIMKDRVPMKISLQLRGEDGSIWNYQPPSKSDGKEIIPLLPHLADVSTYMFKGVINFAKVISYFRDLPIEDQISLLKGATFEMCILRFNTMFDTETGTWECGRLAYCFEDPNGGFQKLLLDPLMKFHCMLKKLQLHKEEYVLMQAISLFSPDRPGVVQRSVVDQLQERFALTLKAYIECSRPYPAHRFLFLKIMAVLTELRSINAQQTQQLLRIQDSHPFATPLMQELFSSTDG

GST-mPXR1 [2] = target: T3, GST-mPXR1 (Mus musculus, UniProt O54915); conditions: Kliewer et al, Cell 92:73-82 (1998); cited from earlier work
T3 construct: The LBDs of hPXR and mPXR1 were expressed in E. coli as fusion proteins with glutathione-S-transferase (GST); made in house; host or cells: E. coli
T3 sequence (O54915 143-430 limits assumed): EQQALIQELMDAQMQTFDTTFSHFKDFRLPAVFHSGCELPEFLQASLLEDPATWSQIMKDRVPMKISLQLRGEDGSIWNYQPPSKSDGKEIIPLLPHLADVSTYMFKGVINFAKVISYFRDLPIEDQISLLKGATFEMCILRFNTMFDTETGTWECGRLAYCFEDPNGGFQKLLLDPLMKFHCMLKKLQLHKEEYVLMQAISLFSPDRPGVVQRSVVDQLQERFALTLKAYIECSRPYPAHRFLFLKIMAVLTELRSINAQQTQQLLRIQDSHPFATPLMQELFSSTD
T3 sequence (Q15788 whole entry partner, the tested form may be a part): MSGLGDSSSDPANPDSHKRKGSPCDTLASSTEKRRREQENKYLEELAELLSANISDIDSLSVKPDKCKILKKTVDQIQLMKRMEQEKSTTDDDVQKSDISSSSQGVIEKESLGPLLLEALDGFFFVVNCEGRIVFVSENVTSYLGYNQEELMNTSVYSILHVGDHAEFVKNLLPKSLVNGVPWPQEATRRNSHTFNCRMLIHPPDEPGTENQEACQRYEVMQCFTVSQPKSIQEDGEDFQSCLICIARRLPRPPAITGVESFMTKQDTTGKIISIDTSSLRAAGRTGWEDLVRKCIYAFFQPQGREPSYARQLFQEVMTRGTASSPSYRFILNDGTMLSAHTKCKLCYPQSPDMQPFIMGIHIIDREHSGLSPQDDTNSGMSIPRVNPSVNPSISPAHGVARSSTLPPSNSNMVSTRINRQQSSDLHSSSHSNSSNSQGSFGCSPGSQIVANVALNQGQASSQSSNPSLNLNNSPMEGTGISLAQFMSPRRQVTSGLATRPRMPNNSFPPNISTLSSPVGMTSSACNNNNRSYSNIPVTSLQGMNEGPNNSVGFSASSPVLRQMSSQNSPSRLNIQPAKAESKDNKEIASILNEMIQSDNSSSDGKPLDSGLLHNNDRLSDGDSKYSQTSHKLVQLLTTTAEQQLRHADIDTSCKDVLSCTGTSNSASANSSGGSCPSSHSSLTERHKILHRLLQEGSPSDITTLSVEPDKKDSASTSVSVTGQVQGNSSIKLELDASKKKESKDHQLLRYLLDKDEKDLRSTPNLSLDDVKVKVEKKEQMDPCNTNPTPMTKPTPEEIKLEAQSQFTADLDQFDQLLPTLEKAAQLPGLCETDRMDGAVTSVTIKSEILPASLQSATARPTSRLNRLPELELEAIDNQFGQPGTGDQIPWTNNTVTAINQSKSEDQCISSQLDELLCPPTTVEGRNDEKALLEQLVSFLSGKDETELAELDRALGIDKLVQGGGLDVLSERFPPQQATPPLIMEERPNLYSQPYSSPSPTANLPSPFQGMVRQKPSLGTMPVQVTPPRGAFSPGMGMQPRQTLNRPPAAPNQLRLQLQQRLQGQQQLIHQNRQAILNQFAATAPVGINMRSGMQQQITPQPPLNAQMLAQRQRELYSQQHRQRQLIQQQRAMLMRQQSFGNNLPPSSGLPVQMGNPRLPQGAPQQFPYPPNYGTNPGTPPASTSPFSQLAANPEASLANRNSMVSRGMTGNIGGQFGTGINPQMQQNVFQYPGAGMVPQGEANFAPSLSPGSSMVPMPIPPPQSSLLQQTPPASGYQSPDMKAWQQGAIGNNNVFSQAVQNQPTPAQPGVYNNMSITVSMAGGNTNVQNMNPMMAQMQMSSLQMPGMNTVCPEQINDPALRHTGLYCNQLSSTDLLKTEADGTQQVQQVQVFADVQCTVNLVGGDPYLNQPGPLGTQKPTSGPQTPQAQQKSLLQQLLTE

CYP3A4 gene expression = conditions: cited from earlier work
CYP3A1 levels = conditions: cited from earlier work
GST-mPXR1 [3] = target: T3, GST-mPXR1; assay: Coactivator-receptor ligand assay (CARLA), GST-mPXR1 with [35S]SRC1.14; type: binding; conditions: 10 μM
Method: as §1
GST-hPXR fusion protein was expressed in BL21(DE3)plysS cells and bacterial extracts prepared by one cycle of freeze-thaw of the cells in Protein Lysis. Buffer containing 10 mM Tris, pH 8.0, 50 mM KCl, 10 mM DTT, and 1% NP-40 followed by centrifugation at 40,000×g for 30 minutes. Glycerol was added to the resulting supernatant to a final concentration of 10%. Lysates were stored at −80° C. [^35S]SRC1.14 was generated using the TNT rabbit reticulocyte system (Promega) in the presence of Pro-Mix (Amersham). Coprecipitation reactions included 25 μl of lysate containing GST-hPXR fusion protein, 25 μl Incubation Buffer (50 mM KCl, 40 mM HEPES pH 7.5, 5 mM β-mercaptoethanol, 1% Tween-20, 1% non-fat dry milk), 5 μl […], and vehicle (1% DMSO) or compounds as indicated. […]

hPXR [4] = target: T1, hPXR; conditions: CV-1 cells; 10 μM
Method: FIGS. 1A-1D. […] Cell extracts were subsequently assayed for CAT activity.
as §2

Compound: CC(=O)[C@H]1CC[C@H]2[C@@H]3CC[C@@H]4CC(=O)CC[C@]4(C)[C@H]3CC[C@]12C [5 β-pregnane-3,20-dione]
- fold activation of hPXR (hPXR [1]; 10 μM): roughly 4 fold
- IC50 (Biotin-His6-PXR/RXRα): 1000 nM

Compound: CC(=O)[C@H]1[C@H](C#N)C[C@H]2[C@@H]3CC=C4C[C@@H](O)CC[C@]4(C)[C@H]3CC[C@@]21C [PCN]
- activation of hPXR (CAT activity) (hPXR [1]): activated
- fold activation of mPXR1 (mPXR1): roughly 9 fold
- interaction of the mPXR1 LBD with SRC1.14 (GST-mPXR1 [2]): promote the interaction
- induction of CYP3A4 gene expression / CYP3A levels in human hepatocytes (CYP3A4 gene expression): only modest effects
- effect on CYP3A1 / CYP3A levels in rat hepatocytes (CYP3A1 levels): marked effects

Compound: Clc1ccccc1C(c1ccccc1)(c1ccccc1)n1ccnc1 [clotrimazole]
- interaction between GST-mPXR1 and [35S]SRC1.14 (GST-mPXR1 [3]): did not
- IC50 (Biotin-His6-PXR/RXRα): 1300 nM

Compound: C[C@@H]1C[C@H]2[C@@H]3CCC4=CC(=O)C=C[C@]4(C)[C@@]3(F)[C@@H](O)C[C@]2(C)[C@@]1(O)C(=O)COC(=O)CC(C)(C)C [dexamethasone-t-butylacetate]
- activation of hPXR (CAT activity) (hPXR [1]): induced reporter levels; also recorded: activated
- activation of hPXR (CAT activity) (hPXR [1]; listed as Dexamethasone-t-butylacetate): most efficacious activators
- activation of hPXR (CAT activity), CYP3A1 DR3 PXRE reporter (hPXR [4]): activated efficiently

Compound: CC[C@H](C)C(=O)O[C@H]1C[C@@H](C)C=C2C=C[C@H](C)[C@H](CC[C@@H]3C[C@@H](O)CC(=O)O3)[C@H]21 [lovastatin]
- activation of hPXR (CAT activity) (hPXR [1]): activated; also recorded: more efficacious activators of hPXR than mPXR1

Compound: CCC1(c2ccccc2)C(=O)NC(=O)NC1=O [phenobarbital]
- activation of hPXR (CAT activity) (hPXR [1]): activated; also recorded: more efficacious activators of hPXR than mPXR1

Compound: ClC1=C(Cl)[C@]2(Cl)[C@H]3[C@H]([C@H](Cl)C(Cl)[C@@H]3Cl)[C@@]1(Cl)C2(Cl)Cl (stereo partly drawn) [transnonachlor]
- activation of hPXR (CAT activity) (hPXR [1]): activated
